Test results published in patent US8318489B2, “Prostacyclin directed differentiation of cardiomyocytes from human embryonic stem cells” (priority 2005, dated 2012).

Columns and labels:
Type in all cases: cell-based, human
[1] = system: Transgenic hES cells carrying α-MHCneo; experiment: G418 selection of transgenic hES-derived cardiomyocytes, MF-20 staining
Method: Transgenic hES cells carrying α-MHCneo were differentiated in END-2 conditioned media as described in Example 8 and then selected with 200 µg/ml or 400 μg/ml G418 for various periods. Cells were dissociated by trypsin and plated onto chamber slides. Transgenic cardiomyocytes that were not selected with G418 were also plated as a control. Cells were then fixed by 2% paraformaldehyde and stained with the MF-20 antibody, which recognizes cardiac α-MHC. Cells were counterstained with haematoxylin to reveal nuclei. Cells […] for MF-20 staining in each slide preparation were counted and calculated as a percentage of total nuclei.

hES cells [2] = experiment: Embryoid body differentiation of hES cells, visual scoring of beating EBs; conditions: for CM induction activity (number of beating areas): growth factor 10 ng/ml added to END2-CM, day 12, compared to END2-CM alone; for effect on induction of cardiomyocytes: supplemented to DMEM3 (giving bSFS)
Method: This procedure describes the formation of embryoid bodies (EB) from collagenase-derived hES cell cultures. After formation the EBs were then exposed to END2 conditioned medium (CM).
Enzymatically passaged hES cells grown on feeder cells were washed once with PBS^+ and treated with Collagenase IV (1 mg/ml) for 3-4 min at 37° C. The Collagenase IV solution was replaced by DMEM and the cells were mechanically dissociated with a pipette tip. Cells were then harvested using a cell scraper and the cell suspension was transferred to a 50 ml tube (Falcon). Cell clumps were collected by gravity and the supernatant was aspirated. Cells were resuspended in fresh DMEM medium aiming to uniformly disperse the cell clumps in the suspension. An equal volume of the cell suspension was then transferred to ultra low attachment plates (Costar). Usually 6-well plates were used and cells were cultured in 2 ml of medium. Alternatively, cells can be seeded into plates under conditions supporting cell adherence to induce differentiation of hES cells attached to a surface.
In suspension culture, EBs are formed in ultra low attachment plates in SF medium over night. After over night incubation SF medium was replaced by fresh SF medium or END2-CM respectively for further differentiation. Subsequent medium changes were performed every 3-4 days. Usually, cells were cultured over a period of 12-13 days before the visual analysis of the proportion of beating EBs under a microscope was performed followed by cell collection for additional readouts. Multiple beating areas on single EBs were not counted separately. Values are expressed as a percentage of contracting EBs compared to […] in a single well of a 6-well tray. Cell harvest and analysis at time points other then 12-13 days after EB formation is indicated in the respective examples and figures of this embodiment. For EB scoring and other analytical methods hES cell differentiation was performed in triplicates applying the same culture conditions (e.g. the same medium added) in 3 independent wells of a 6-well plate. An average value per well was calculated and presented.

hES cells [3] = experiment: Cardiomyocyte quantification via cytospin (MF-20 / αMHC staining); conditions: for cardiomyocyte yield compared to bSFS alone: L-IGF-I 5.0 ng/ml, AA 5.0 μM, FGF2 […] into bSFS
Method: EBs were washed twice with PBS (without calcium and magnesium) and dissociated to single cells using trypsin (Invitrogen). […] The cell pellet was resuspended in PBS and a cell count performed. 100,000 cells were spun at 500 rpm for 5 min onto glass slides at low acceleration using a cytospin system (Shandon). Adherent cells were fixed, stained and the total cell number (DAPI staining of cell nuclei) and the number of sarcomeric alpha myosin heavy chain positive cells (αMHC, MF-20 Ab, Hybridoma Bank, Iowa; 1:200 followed by respective rabbit-anti mouse Cy3-labeled secondary Ab 1:500, Zymed) were counted in at least 3 independent fields of view at 20× magnification with at least 300 nuclei per field; fields were randomly selected in the DAPI channel (Zeiss Axiovert 200M, Zeiss) avoiding bias towards cardiomyocyte content. The percentage of cardiomyocytes compared to the total cell nuclei number was calculated.
Readouts were performed on day 13. […] The percentage of cardiomyocytes was counted via cytospin and the cardiomyocyte yield was calculated from the total cell count per well and the percentage of cardiomyocytes. Results are presented in Table 2 which provides an analysis on day 12 EBs differentiated in the presence of respective media added with substances as indicated in the table. Differentiation was performed in suspension in a low attachment 6-well format. Average numbers per well of a 6-well plate are presented.

H3M11 cardiomyocytes = experiment: Microelectrode array recording of selected cardiomyocytes; conditions: 10 μM isoproterenol; from 46 beats/min before addition
Description: H3M11, one of the transgenic hES lines carrying the mouse α-MHCneo transgene, was differentiated in END-2 conditioned media to induce cardiomyocytes and then selected with G418 for 1 week. G418-selected H3M11 cardiomyocytes were dissociated and plated on microelectrode array chips each containing 64 electrodes (Multi Channel Systems MCS GmbH, Reutlingen, Germany). Extracellular recordings were made with the MEA1060 amplifier and MC-Rack software. Sampling rate was 10 kHz. A control recording was made before addition of compounds.

hES cells [4] = experiment: Real time RT-PCR for cardiac markers (α-MHC, ANF)
Method: RNA extraction: EBs at the end of the twelve day period were harvested. […] Trizol (Invitrogen) was added before freezing the EBs at -80° C. to ease cell lysis. Frozen samples were thawed and […]. Chloroform was added to the sample and incubated for 3 min at room temperature. The sample was centrifuged for 15 min at 13000 rpm at 4° C. and the aqueous phase collected. An equal volume of 70% ethanol was added before the sample was loaded onto an RNeasy mini column (Qiagen). The column was centrifuged for 15 sec at ≧8000 g. The rest of the purification steps were performed according to manufacturer's instructions. RNA was eluted in RNase-free water. 5 μg of the RNA sample was then treated with DNase (Invitrogen) in a volume of 50 μl. The mixture was incubated at room temperature for 30 min and heat inactivated for 10 min at 80° C. before cooling rapidly on ice. […] Samples were incubated for 1 hour at 37° C. before the reaction was terminated for 5 min at 95° C. RT-PCR was performed using 100 ng of cDNA with the following conditions: Cycle 1 (40×) denaturation at 95° C. for 10 s, annealing at 58° C. for 30 s and extension at 72° C. for 45 s. Melting curve step was included at the end with the following conditions: […] The gene primers used are α-MHC (sense primer: […] NO: 1); antisense primer: […] (sense primer: […] NO: 3); antisense primer […] NO: 4)) and β-Actin (sense primer: […] […]

[5] = insulin 0.1-10 μg/ml added to END2-CM

CN[C@@H]1[C@@H](O)[C@@H](O[C@@H]2[C@@H](O)[C@H](O[C@H]3O[C@H]([C@@H](C)O)[C@@H](O)[C@H](O)[C@H]3N)[C@@H](N)C[C@H]2N)OC[C@]1(C)O [G418]
Percent cardiomyocytes ([1]; G418 200 μg/ml for 10 days): 99.02% | Percent cardiomyocytes ([1]; G418 200 μg/ml for 16 days): 99.20% | Percent cardiomyocytes ([1]; G418 400 μg/ml 13 days): 99.53% | Percent cardiomyocytes ([1]; G418 400 μg/ml for 7 days): 99.85% | cells positive for the cardiac marker ([1]; two different G418 concentrations for various days): greater than 99%

Igf2: recombinant human Igf2 (R&D)
CM induction activity (number of beating areas) (hES cells [2]): enhance CM induction activity

CC(=O)O [AA, acetic acid]
cardiomyocyte yield compared to bSFS alone (hES cells [3]): some increase

Transferrin: medium supplement, 0.0055 mg/ml Transferrin (Roche)
effect on induction of cardiomyocytes (hES cells [2]): not inhibitory

O=[Se]([O-])[O-].[Na+].[Na+] [Selenium, sodium Selenite]
effect on induction of cardiomyocytes (hES cells [2]): not inhibitory

FGF2: Basic Fibroblast Growth Factor; Invitrogen
cardiomyocyte yield compared to bSFS alone (hES cells [3]): some increase

CC(C)NCC(O)c1ccc(O)c(O)c1 (stereo not shown) [isoproterenol]
beating frequency (H3M11 cardiomyocytes): 70 beats/min

insulin: Insulin (Roche) spiked into END2-CM
relative expression of early cardiomyocyte markers (MesP1, NRx2.5, ANF, α-MHC) (hES cells [4]; [5]): dose dependent decrease in expression | cardiomyocyte formation from hESC (hES cells [2]; insulin 10 μg/ml added to END2-CM): complete inhibition | cardiomyocyte formation from hESC (hES cells [2]; [5]): dose dependent inhibition

Scf: recombinant human Scf, stem cell factor (CytoLab)
CM induction activity (number of beating areas) (hES cells [2]): enhance CM induction activity

CCCCC[C@H](O)/C=C/[C@@H]1[C@H]2C/C(=C/CCCC(=O)[O-])O[C@H]2C[C@H]1O.[Na+] [PGI2, (5Z,9α,11α,13E,15S)-6,9-Epoxy-11,15-dihydroxyprosta-5,13-dien-1-oic acid Sodium salt]
expression of cardiomyocyte marker genes α-MHC and ANF (hES cells [4]; bSFS+PGI2 compared to END-CM): equivalent, if not enhanced expression | cardiomyocyte inducing activity (hES cells [2]; PGI2 0.2 and 2.0 μM in bSFS): increase in cardiomyocyte inducing activity to levels similar to that observed with END2-CM | percentage of beating EBs (hES cells [2]; PGI2 2, 20, 200, 2000 nM in DMEM3, day 12, in comparison with basic DMEM3): significant increases | percentage of the overall cell population that forms cardiomyocytes (hES cells [3]; bSFS+PGI2, cytospin MF20): equivalent to that observed in END2-CM cultures
